ChEMBL document CHEMBL4342427, “A new chemotype with promise against Trypanosoma cruzi” (Bioorg Med Chem Lett, 2020)
Values after ≈ are worked out from the molar mass of the structure shown. Active and inactive are the calls of the source. No cut-off for these calls is given here.

Columns and labels:
[1] = system: HEK-293T; test: Cytotoxicity against human HEK293T cells assessed as cell growth inhibition; type: cell-based
[2] = system: Trypanosoma cruzi; test: Antitrypanosomal activity against Trypanosoma cruzi Tulahuen C4 trypomastigotes infected in rat L6 cells measured after 96 hrs by inverted microscopy analysis; type: functional, organism-based; conditions: Tulahuen C4, L6, 96 h
[3] = Intrinsic clearance in mouse liver microsomes assessed per mg protein measured up to 60 mins in presence of NADPH; type: ADME, Microsome; conditions: 1 h
[4] = system: Plasmodium falciparum; test: Antiprotozoal activity against Plasmodium falciparum NF54 assessed as reduction in [3H]hypoxanthine incorporation preincubated for 48 hrs followed by [3H]hypoxanthine addition and measured after 24 hrs by liquid scintillation counting method; type: functional, organism-based
[5] = Intrinsic clearance in human liver microsomes assessed per mg protein measured up to 60 mins in presence of NADPH; type: ADME, Microsome; conditions: for microsomal CLint: liver microsomes
[6] = n-octanol/aqueous buffer distribution coefficient, log D of compound at pH 7.4 by HPLC analysis; type: physicochemical
[7] = system: Toxoplasma gondii; test: Antiparasitic activity against Toxoplasma gondii RH transfected with fluorescent transgene dTom; type: functional, organism-based
[8] = system: HFF; test: Cytotoxicity against human HFF cells assessed as cell growth inhibition; type: cell-based
[9] = Cytotoxicity against human HC04 cells assessed as cell growth inhibition; type: cell-based
[10] = system: Trypanosoma brucei rhodesiense; test: Antiprotozoal activity against Trypanosoma brucei rhodesiense STIB900 […] assessed as growth inhibition after 72 hrs by Alamar Blue dye-based fluorometric analysis; type: functional, organism-based; conditions: STIB900, 72 h
[11] = system: Leishmania donovani; test: Antileishmanial activity against Leishmania donovani MHOM/ET/67/L82 amastigotes assessed as growth inhibition after 72 hrs by plate reader based Alamar blue assay; type: functional, organism-based; conditions: MHOM/ET/67/L82, 72 h
[12] = Kinetic solubility in phosphate buffer at pH 6.5 by nephelometry; conditions: read-out: Kinetic_solubility
[13] = system: U2OS; test: Cytotoxicity against human U2OS cells assessed as cell growth inhibition; type: cell-based
[14] = target: T1, Sterol 14-alpha demethylase (Trypanosoma cruzi (strain CL Brener), UniProt Q7Z1V1); test: Inhibition of Trypanosoma cruzi Tulahuen C4 CYP51 expressed in Escherichia coli HMS174 using [3H]-sterol as substrate in presence of NADPH by reversed phase HPLC analysis
T1 sequence (Q7Z1V1 whole entry): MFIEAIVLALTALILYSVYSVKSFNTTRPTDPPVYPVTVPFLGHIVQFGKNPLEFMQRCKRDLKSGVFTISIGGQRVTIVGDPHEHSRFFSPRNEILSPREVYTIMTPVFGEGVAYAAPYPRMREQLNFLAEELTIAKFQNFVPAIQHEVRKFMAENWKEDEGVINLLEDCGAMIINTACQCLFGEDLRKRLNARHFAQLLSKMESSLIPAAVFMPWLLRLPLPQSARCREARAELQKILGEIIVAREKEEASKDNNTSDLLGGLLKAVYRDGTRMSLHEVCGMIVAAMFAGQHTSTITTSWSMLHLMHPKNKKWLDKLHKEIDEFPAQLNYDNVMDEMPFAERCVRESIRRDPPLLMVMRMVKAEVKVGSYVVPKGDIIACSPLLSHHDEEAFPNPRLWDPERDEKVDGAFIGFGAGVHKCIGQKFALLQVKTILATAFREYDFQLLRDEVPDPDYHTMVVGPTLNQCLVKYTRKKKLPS

[15] = Protein binding in human plasma by HPLC analysis; type: ADME, cell-free
[16] = target: T1, Sterol 14-alpha demethylase; test: (§1) Binding affinity to full length Trypanosoma cruzi Tulahuen C4 C-terminal His-tagged CYP51 expressed in Escherichia coli HMS174 (DE3) assessed as induction of shift in Soret band by spectrophotometry
[17] = Kinetic solubility in 0.01M HCl at pH 2 by nephelometry; conditions: read-out: Kinetic_solubility
[18] = Ratio of IC50 for antiprotozoal activity against Trypanosoma brucei rhodesiense STIB900 […] assessed as growth inhibition after 72 hrs by Alamar Blue dye-based fluorometric analysis to IC50 for antitrypanosomal activity against Trypanosoma cruzi Tulahuen C4 trypomastigotes infected in rat L6 cells measured after 96 hrs by inverted microscopy analysis; type: functional
[19] = Ratio of IC50 for antiprotozoal activity against Plasmodium falciparum NF54 assessed as reduction in [3H]hypoxanthine incorporation preincubated for 48 hrs followed by [3H]hypoxanthine addition and measured after 24 hrs by liquid scintillation counting method to IC50 for antitrypanosomal activity against Trypanosoma cruzi Tulahuen C4 trypomastigotes infected in rat L6 cells measured after 96 hrs …; type: functional
[20] = target: Sterol 14-alpha demethylase (Trypanosoma cruzi (strain CL Brener)) (UniProt Q7Z1V1); test: as §1
Chain of Sterol 14-alpha demethylase (Trypanosoma cruzi (strain CL Brener)) (Q7Z1V1 whole entry, looked up): as the sequence (Q7Z1V1 whole entry) above

[21] = system: Trypanosoma cruzi; test: Antitrypanosomal activity against Trypanosoma cruzi Tulahuen 20A trypomastigote expressing GFP infected in BALB/c mouse cardiomyocytes assessed as reduction in parasitemia measured after 72 hrs by fluorescence assay; type: functional, organism-based

Compound: CN1CCN(c2ccc(S(=O)(=O)NCc3ccc(-c4nc(-c5cccnc5)no4)cc3)cc2)CC1
- IC50 [1]: 42 µM
- IC50 [2]: 1.2 µM
- CLint [3]: 677 µL/min/mg
- IC50 [4]: 5.8 µM
- CLint ([5]; microsomes, 1 h): 535 µL/min/mg
- logD [6]: 4.1
- IC50 [7]: 21 µM
- IC50 [8]: > 50 µM
- IC50 [9]: > 50 µM
- IC50 [10]: 3.4 µM
- IC50 [11]: 49 µM
- solubility kinetic [12]: 25 to 50 µg/mL (≈ 51 to 102 µM)
- IC50 [13]: 28 µM

Compound: CN1CCN(c2ccc(S(=O)(=O)NCc3ccc(C(=O)Nc4cccnc4)cc3)cc2)CC1
- IC50 [1]: 0.36 µM
- IC50 [2]: 0.007 µM
- CLint [3]: 112 µL/min/mg
- IC50 [4]: 10 µM
- IC50 [14]: 49 µM
- microsomal CLint [5]: 45 µL/min/mg
- logD [6]: 2.8
- IC50 [7]: > 100 µM
- IC50 [8]: > 50 µM
- IC50 [9]: > 50 µM
- PPB [15]: 85.2%
- IC50 [10]: 32 µM
- IC50 [11]: > 200 µM
- solubility kinetic [12]: 25 to 50 µg/mL (≈ 53.7 to 107 µM)
- Kd [16]: 1.32 µM
- IC50 [13]: 0.15 µM

Compound: CN1CCN(c2ccc(S(=O)(=O)NCc3ccc(C(=O)Nc4ccc(C#N)nc4)cc3)cc2)CC1
- IC50 [2]: 100 µM

Compound: CN1CCN(c2ccc(C(=O)NCc3ccc(C(=O)Nc4cccnc4)cc3)cc2)CC1
- IC50 [2]: 120 µM

Compound: CN1CCN(c2ccc(S(=O)(=O)NCc3ccc(C(=O)Nc4cncnc4)cc3)cc2)CC1
- IC50 [2]: 96 µM

Compound: Cc1ccc(NC(=O)c2ccc(CNS(=O)(=O)c3ccc(N4CCN(C)CC4)cc3)cc2)c(C)n1
- IC50 [2]: 110 µM

Compound: O=C(Nc1cccnc1)c1ccc(CNS(=O)(=O)c2ccc(N3CCC(O)CC3)cc2)cc1
- IC50 [2]: 120 µM

Compound: O=C(Nc1cccnc1)c1ccc(CNS(=O)(=O)c2ccc(N3CCOCC3)cc2)cc1
- solubility kinetic [17]: 50 to 100 µg/mL (≈ 110 to 221 µM)
- IC50 [1]: 0.95 µM
- IC50 [2]: 2.1 µM
- CLint [3]: 200 µL/min/mg
- IC50 [4]: 21 µM
- microsomal CLint [5]: 69 µL/min/mg
- logD [6]: 2.6
- IC50 [7]: > 100 µM
- Ratio IC50 [18]: 10
- IC50 [8]: 2 µM
- IC50 [9]: > 50 µM
- PPB [15]: 76.2%
- IC50 [10]: 25 µM
- IC50 [11]: 180 µM
- solubility kinetic [12]: 12.5 to 25 µg/mL (≈ 27.6 to 55.2 µM)
- IC50 [13]: 0.16 µM
- Ratio IC50 [19]: 10

Compound: Cc1ccc(NC(=O)c2ccc(CNS(=O)(=O)c3ccc(N4CCN(C)CC4)cc3)cc2)cn1
- IC50 [2]: 88 µM

Compound: CN1CCN(c2ccc(S(=O)(=O)NCc3ccc(C(=O)Nc4cnccn4)cc3)cc2)CC1
- IC50 [2]: 17 µM

Compound: C[C@@H]1CN(c2ccc(S(=O)(=O)NCc3ccc(C(=O)Nc4cccnc4)cc3)cc2)C[C@H](C)N1
- IC50 [2]: 130 µM

Compound: CN1CCN(c2ccc(S(=O)(=O)NC[C@H]3CC[C@H](C(=O)Nc4cccnc4)CC3)cc2)CC1
- IC50 [2]: 120 µM

Compound: Cc1ncccc1NC(=O)c1ccc(CNS(=O)(=O)c2ccc(N3CCN(C)CC3)cc2)cc1
- IC50 [2]: 65 µM
- IC50 [14]: 487 µM
- Activity [20]: inactive

Compound: O=C(Nc1cccnc1)c1ccc(CNS(=O)(=O)c2ccc(N3CCCCC3)cc2)cc1
- IC50 [2]: 110 µM

Compound: CCOC(=O)N1CCN(c2ccc(S(=O)(=O)NCc3ccc(C(=O)Nc4cccnc4)cc3)cc2)CC1
- IC50 [2]: 46 µM

Compound: CN1CCN(c2ccc(S(=O)(=O)NCc3ccc(C(=O)Nc4ccncc4)cc3)cc2)CC1
- IC50 [2]: 28 µM

Compound: O=C(Nc1cccnc1)c1ccc(CNS(=O)(=O)c2ccc(N3CCNCC3)cc2)cc1
- IC50 [2]: 69 µM

Compound: CC[C@@H]([C@H](C)O)n1ncn(-c2ccc(N3CCN(c4ccc(OC[C@@H]5CO[C@@](Cn6cncn6)(c6ccc(F)cc6F)C5)cc4)CC3)cc2)c1=O [POSACONAZOLE]
- IC50 [21]: 0.005 µM

Compound: O=C(Nc1cccnc1)c1ccc(CNS(=O)(=O)c2ccc(N3CCC3)cc2)cc1
- IC50 [2]: 8.3 µM
